According to patent US7288273B1, “Gallotannins and ellagitannins as regulators of cytokine release” (The Penn State Research Foundation, priority 2000, dated 2007):

Assays:
[1] = tested on: TNF-α secretion from h-PBMC's; experiment: TNF-α release from h-PBMC's, ELISA; format: cell-based, human; conditions: 24 hours, ± SD
Method in brief: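 Human PBMCs from healthy donors (1×10^6 cells/well in RPMI) were incubated with compound added from HBSS stock for 24 h at 37 °C, 5% CO2. TNF-α in culture supernatants was measured by ELISA against standard curves, with LPS as positive control and untreated cells as negative; mean of triplicates.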

[2] = tested on: LPS induced TNF-α secretion from h-PBMC's; experiment: Inhibition of LPS induced TNF-α secretion from h-PBMC's; format: cell-based, human; conditions: for TNF-α secreted in the presence of LPS and 17c-20c: compound 10 μg/mL added after 45 minutes, h-PBMC's 3rd subject; for TNF-α secreted in the presence of LPS and 17c-20c / TNF-α secreted in the presence of LPS and 18c-20c: ± SD; for TNF-α secreted in the presence of LPS and 18c-20c: 4th subject
Method in brief: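 Human PBMCs stimulated with LPS (5 or 10 μg/mL), compounds added at varying concentrations 45 min after LPS or simultaneously; supernatants harvested after 8 h. Secreted TNF-α normalized as percent of maximum secretion with LPS alone.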

## O=C(OC[C@H]1O[C@@H](OC(=O)c2cccc(C(=O)O[C@@H]3O[C@H](COC(=O)c4cc(O)c(O)c(O)c4)[C@@H](OC(=O)c4cc(O)c(O)c(O)c4)[C@H](OC(=O)c4cc(O)c(O)c(O)c4)[C@H]3OC(=O)c3cc(O)c(O)c(O)c3)c2)[C@H](OC(=O)c2cc(O)c(O)c(O)c2)[C@@H](OC(=O)c2cc(O)c(O)c(O)c2)[C@@H]1OC(=O)c1cc(O)c(O)c(O)c1)c1cc(O)c(O)c(O)c1 [Compound 18c, 1,1′-O-2,2′,3,3′,4,4′,6,6′-Tetrakis(3,4,5-trihydroxybenzoyl)-β,β′-D-glucopyranosylisophthalate]
[1]; compound 0.6 μM
  TNF-α secreted in the presence of 17c-21c: 8.9 ± 5.6 pg/mL
[1]; compound 2.9 μM
  TNF-α secreted in the presence of 17c-21c: 11.9 ± 5.2 pg/mL
[1]; compound 5.9 μM
  TNF-α secreted in the presence of 17c-21c: 6.7 ± 2.9 pg/mL
[1]; compound 11.8 μM
  TNF-α secreted in the presence of 17c-21c: 9.5 ± 7.2 pg/mL
[1]; compound 17.6 μM
  TNF-α secreted in the presence of 17c-21c: 11.4 ± 9.2 pg/mL
[1]; compound 23.5 μM
  TNF-α secreted in the presence of 17c-21c: 3.3 ± 2.6 pg/mL
[1]; compound 29.4 μM
  TNF-α secreted in the presence of 17c-21c: 8.5 ± 3.5 pg/mL
[2]; LPS 5 μg/mL, time 1 h
  TNF-α secreted in the presence of LPS and 17c-20c: 594.6 ± 93.2 pg/mL
[2]; LPS 5 μg/mL, time 4 h
  TNF-α secreted in the presence of LPS and 17c-20c: 1523.3 ± 472.8 pg/mL
[2]; LPS 5 μg/mL, time 8 h
  TNF-α secreted in the presence of LPS and 17c-20c: 2829.3 ± 52.6 pg/mL
[2]; LPS 5 μg/mL, time 12 h
  TNF-α secreted in the presence of LPS and 17c-20c: 2448.1 ± 43.6 pg/mL
[2]; LPS 5 μg/mL, time 16 h
  TNF-α secreted in the presence of LPS and 17c-20c: 3956.3 ± 524.5 pg/mL
[2]; LPS 5 μg/mL, time 24 h
  TNF-α secreted in the presence of LPS and 17c-20c: 2002.1 ± 95.1 pg/mL
[2]; LPS 5 μg/mL, 3rd subject
  maximum inhibition of LPS induced TNF-α secretion: 35%
[2]; LPS 10 μg/mL, substrate added after 45 minutes, 8 hours
  maximum inhibition of LPS induced TNF-α secretion: 45%
[2]; compound 0.6 μM added 45 minutes after LPS 10 μg/mL, 8 hours
  TNF-α secreted in the presence of LPS and 18c-20c: 69.0 ± 4.9 % max. response
[2]; compound 2.9 μM added 45 minutes after LPS 10 μg/mL, 8 hours
  TNF-α secreted in the presence of LPS and 18c-20c: 71.9 ± 15.2 % max. response
[2]; compound 5.9 μM added 45 minutes after LPS 10 μg/mL, 8 hours
  TNF-α secreted in the presence of LPS and 18c-20c: 59.5 ± 9.5 % max. response
[2]; compound 11.7 μM added 45 minutes after LPS 10 μg/mL, 8 hours
  TNF-α secreted in the presence of LPS and 18c-20c: 54.4 ± 15.4 % max. response
[2]; compound 23.5 μM added 45 minutes after LPS 10 μg/mL, 8 hours
  TNF-α secreted in the presence of LPS and 18c-20c: 60.6 ± 9.9 % max. response
